The labels stand for the following.
B1: G. vrijenhoeki peptide (GVP)-3 (peptide)
peptide: KVHL
B2: G. vrijenhoeki peptide (GVP)-1 (peptide)
peptide: KLQE
B3: G. vrijenhoeki peptide (GVP)-5 (peptide)
peptide: PSLVG
B4: G. vrijenhoeki peptide (GVP)-10 (peptide)
peptide: KLLWNGKM
B5: G. vrijenhoeki peptide (GVP)-6 (peptide)
peptide: LNSL
B6: G. vrijenhoeki peptide (GVP)-8 (peptide)
peptide: PGLADMR
B7: G. vrijenhoeki peptide (GVP)-2 (peptide)
peptide: KVLH
B8: G. vrijenhoeki peptide (GVP)-7 (peptide)
peptide: ALRPKF
B9: G. vrijenhoeki peptide (GVP)-11 (peptide)
peptide: YALPHAL

What is called IC50 is the concentration at which inhibition is half-maximal.

Ends that are not written are not given here. Peptide text beside a SMILES is read from it.

One experiment has as its target T1, angiotensin I-converting enzyme (ACE) (Homo sapiens, UniProt P12821). As to the kind of experiment: ACE inhibitory activity assay (Dojindo ACE Kit). It is filed as biochemical. Also on record: purchased Dojindo Laboratories, Kumamoto, Japan. As to conditions: synthetic peptides with the sequences identified in <1 kDa fraction; triplicate experiments. How it is done:
ACE inhibitory activity was measured using the Dojindo ACE Kit-WET kit (Dojindo Laboratories, Kumamoto, Japan), according to the manufacturer’s instructions. The ACE-inhibitory activity was calculated as follows: ACE inhibitory activity (%)=Acontrol−Asample/Acontrol−Ablank×100% where Acontrol is the absorbance of the positive control, Ablank is the absorbance of the blank containing distilled water, and Asample is the absorbance of the sample. The IC50 value was determined as the concentration of inhibitor required to inhibit 50% of the ACE activity.
Target sequence in this assay (P12821 30-1306, species assumed): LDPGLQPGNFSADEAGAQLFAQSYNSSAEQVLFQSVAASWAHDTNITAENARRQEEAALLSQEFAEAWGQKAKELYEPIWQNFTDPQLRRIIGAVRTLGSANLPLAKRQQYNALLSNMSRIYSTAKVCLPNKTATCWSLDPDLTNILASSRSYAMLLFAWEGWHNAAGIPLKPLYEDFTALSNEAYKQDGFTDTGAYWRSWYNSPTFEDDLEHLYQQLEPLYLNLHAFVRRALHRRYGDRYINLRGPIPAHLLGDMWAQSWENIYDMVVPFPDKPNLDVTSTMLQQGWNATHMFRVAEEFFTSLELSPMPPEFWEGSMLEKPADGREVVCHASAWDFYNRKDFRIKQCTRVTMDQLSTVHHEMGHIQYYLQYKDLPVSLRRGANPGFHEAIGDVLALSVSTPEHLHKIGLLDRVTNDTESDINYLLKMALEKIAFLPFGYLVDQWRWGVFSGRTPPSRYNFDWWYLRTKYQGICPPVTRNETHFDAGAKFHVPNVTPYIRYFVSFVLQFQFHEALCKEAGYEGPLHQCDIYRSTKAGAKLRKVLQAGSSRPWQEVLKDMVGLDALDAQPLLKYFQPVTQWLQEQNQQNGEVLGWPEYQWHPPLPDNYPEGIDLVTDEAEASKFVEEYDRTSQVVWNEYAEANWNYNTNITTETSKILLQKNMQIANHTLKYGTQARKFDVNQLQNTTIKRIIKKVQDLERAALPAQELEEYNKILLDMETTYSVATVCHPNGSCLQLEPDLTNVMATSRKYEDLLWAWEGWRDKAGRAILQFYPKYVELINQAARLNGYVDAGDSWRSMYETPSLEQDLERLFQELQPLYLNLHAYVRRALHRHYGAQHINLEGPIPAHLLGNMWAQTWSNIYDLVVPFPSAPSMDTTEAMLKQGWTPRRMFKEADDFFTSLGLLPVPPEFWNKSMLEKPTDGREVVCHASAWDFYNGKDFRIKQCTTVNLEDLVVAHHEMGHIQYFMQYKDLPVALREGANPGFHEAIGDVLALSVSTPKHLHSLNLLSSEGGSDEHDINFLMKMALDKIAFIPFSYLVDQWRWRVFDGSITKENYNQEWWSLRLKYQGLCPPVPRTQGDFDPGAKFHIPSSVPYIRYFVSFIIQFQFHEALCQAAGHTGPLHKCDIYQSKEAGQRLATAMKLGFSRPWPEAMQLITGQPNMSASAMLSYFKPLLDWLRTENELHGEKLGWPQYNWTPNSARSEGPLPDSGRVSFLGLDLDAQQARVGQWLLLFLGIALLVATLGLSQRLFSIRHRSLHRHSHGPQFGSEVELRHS
`CC(C)C[C@H](NC(=O)[C@@H](N)CCCCN)C(=O)N[C@@H](CCC(N)=O)C(=O)N[C@@H](CCC(=O)O)C(=O)O` [GVP-1, KLQE] (H-KLQE-OH) gave an IC50 of 2960 ± 165 nM.

Consider `CC(C)C[C@H](NC(=O)[C@@H](NC(=O)[C@@H](N)CCCCN)C(C)C)C(=O)N[C@@H](Cc1c[nH]cn1)C(=O)O` [GVP-2, KVLH] (H-KVLH-OH), for which the IC50 stood at 162 ± 2 nM. `CC(C)C[C@H](NC(=O)[C@H](Cc1c[nH]cn1)NC(=O)[C@@H](NC(=O)[C@@H](N)CCCCN)C(C)C)C(=O)O` [GVP-3, KVHL] (H-KVHL-OH) came in with an IC50 of 292 ± 13 nM. Still for that read-out and setting: next, `CC(C)C[C@H](N)C(=O)N[C@H](C(=O)N[C@@H](CCCNC(=N)N)C(=O)O)C(C)C` [GVP-4, LVR] (H-Leu-Val-Arg-OH; N-terminus and C-terminus assumed): 67 ± 5 nM; `CC(C)C[C@H](NC(=O)[C@H](CO)NC(=O)[C@H](CC(N)=O)NC(=O)[C@@H](N)CC(C)C)C(=O)O` [GVP-6, LNSL] (H-LNSL-OH; N-terminus and C-terminus assumed): 1390 ± 11 nM; `CC(C)C[C@H](NC(=O)[C@@H](N)CC(C)C)C(=O)N[C@@H](CCCNC(=N)N)C(=O)O` [GVP-9, LLR]: 435 ± 7 nM.

As for ALRPKF [GVP-7, ALRPKF], the IC50 amounted to 24 ± 17 nM. On to KLLWNGKM [GVP-10, KLLWNGKM], for which it took 7 ± 2 nM to reach half-maximal inhibition (IC50). The molecule PGLADMR [GVP-8, PGLADMR] returned an IC50 of 513 ± 2 nM. Regarding PSLVG [GVP-5, PSLVG], the IC50 worked out at 582 ± 8 nM. This IC50 and that of the molecule before are within 1.5-fold of each other. YALPHAL [GVP-11, YALPHAL]: the IC50 came out at 795 ± 15 nM.

The next experiment concerns the target T1, angiotensin I-converting enzyme (ACE).
Test: not given
Conditions: not given
Target sequence in this assay (P12821 30-1256): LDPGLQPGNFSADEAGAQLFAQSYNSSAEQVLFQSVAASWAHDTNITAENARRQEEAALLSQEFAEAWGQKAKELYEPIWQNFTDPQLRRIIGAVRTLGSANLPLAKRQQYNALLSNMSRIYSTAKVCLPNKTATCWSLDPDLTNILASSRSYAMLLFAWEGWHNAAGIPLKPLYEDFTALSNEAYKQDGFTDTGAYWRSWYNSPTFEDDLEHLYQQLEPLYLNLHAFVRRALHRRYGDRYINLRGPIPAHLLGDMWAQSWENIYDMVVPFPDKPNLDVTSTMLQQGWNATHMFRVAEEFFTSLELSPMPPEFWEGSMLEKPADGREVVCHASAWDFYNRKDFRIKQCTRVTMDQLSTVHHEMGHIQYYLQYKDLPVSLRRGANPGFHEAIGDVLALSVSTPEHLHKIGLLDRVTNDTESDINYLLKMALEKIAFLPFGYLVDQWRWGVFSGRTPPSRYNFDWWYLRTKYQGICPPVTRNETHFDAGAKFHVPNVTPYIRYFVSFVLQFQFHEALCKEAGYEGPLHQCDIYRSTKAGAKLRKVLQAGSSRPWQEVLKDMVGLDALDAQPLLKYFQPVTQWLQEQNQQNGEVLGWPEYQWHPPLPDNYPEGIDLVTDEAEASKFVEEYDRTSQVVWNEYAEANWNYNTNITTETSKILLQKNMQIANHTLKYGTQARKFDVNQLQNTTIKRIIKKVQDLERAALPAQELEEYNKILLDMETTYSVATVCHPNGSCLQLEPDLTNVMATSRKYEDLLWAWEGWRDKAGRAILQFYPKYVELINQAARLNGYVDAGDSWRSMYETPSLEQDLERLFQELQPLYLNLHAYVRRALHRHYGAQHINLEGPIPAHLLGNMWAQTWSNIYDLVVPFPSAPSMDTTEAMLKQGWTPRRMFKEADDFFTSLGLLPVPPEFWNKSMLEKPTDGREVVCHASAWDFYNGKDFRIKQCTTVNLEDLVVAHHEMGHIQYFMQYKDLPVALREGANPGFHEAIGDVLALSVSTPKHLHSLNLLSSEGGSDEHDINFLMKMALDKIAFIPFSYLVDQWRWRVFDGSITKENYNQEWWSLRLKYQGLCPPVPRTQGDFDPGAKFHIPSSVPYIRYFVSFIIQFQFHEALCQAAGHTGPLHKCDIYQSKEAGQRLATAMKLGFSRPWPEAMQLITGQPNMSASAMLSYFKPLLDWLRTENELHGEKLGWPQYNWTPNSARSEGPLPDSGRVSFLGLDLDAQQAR
B1 yielded an IC50 of ACE inhibitory activity (enzyme activity, Dojindo ACE kit, synthetic peptide) of 292 nM.

B2 gave an IC50 of ACE inhibitory activity (enzyme activity, Dojindo ACE kit, synthetic peptide) of 2960 nM. Still for that read-out and setting: next, B3: 582 nM. On the same count and under the same terms, the result for B4 reads 7 nM.

The molecule B5 came in with an IC50 of ACE inhibitory activity (enzyme activity, Dojindo ACE kit, synthetic peptide) of 1390 nM. As to B6, the IC50 of ACE inhibitory activity (enzyme activity, Dojindo ACE kit, synthetic peptide) is 513 nM.

B7 had an IC50 of ACE inhibitory activity (enzyme activity, Dojindo ACE kit, synthetic peptide) of 162 nM. As to B8, the IC50 of ACE inhibitory activity (enzyme activity, Dojindo ACE kit, synthetic peptide) is 24 nM.

For B9, the IC50 of ACE inhibitory activity (enzyme activity, Dojindo ACE kit, synthetic peptide) worked out at 795 nM.

Values taken from article PMC10456528, “Purification and Molecular Docking Study on the Angiotensin I-Converting Enzyme (ACE)-Inhibitory Peptide Isolated from Hydrolysates of the Deep-Sea Mussel Gigantidas vrijenhoeki” (Marine Drugs, 2023).
